Literature values, collected in publication PMC5911155 (Nature chemistry, 2018).

System: Aβ42 monomers
Settings: ref [7], [42]

## Aβ40: fibrils constructed from other proteins and peptides, including Aβ40
  ability of fibrils to catalyse nucleation of Aβ42 monomers: not able to efficiently catalyse nucleation of Aβ42 monomers
